Here are results for one molecule from patent US12234233B2, “Crystal form of phosphodiesterase inhibitor, preparation method therefor and use thereof” (TRANSTHERA SCIENCES (NANJING), INC., priority 2019, dated 2025).

Read-outs that look alike come from different tables or passages of the source.

The nature of data set [1]: Pharmacokinetic evaluation in rats. In kind it is in vivo, male SD rats. The procedure:
Test substances: the compound of formula (I) was prepared by example 1 of the present invention, and the crystal form I was prepared by example 2 of the present invention.
Administration to Animals and Sample Collection:
the compound of formula (I) for the experiment was dissolved with 2% DMSO+10% PEG400+88% (28% HP-3-CD) physiological saline to prepare a solution; the solution of the test substance was administered to SD rats by gavage at a dose of 5.0 mg/kg; and the blood sampling time points were 15 min, 30 min, 1 h, 2 h, 4 h, 6 h, 8 h and 24 h after administration.
The compound of formula (I) for the experiment was dissolved with 2% DMSO+10% PEG400+88% (28% HP-3-CD) physiological saline to prepare a solution; the solution of the test substance was administered to SD rats by intravenous bolus at a dose of 1 mg/kg; and the blood sampling time points were 5 min, 15 min, 30 min, 1 h, 2 h, 4 h, 6 h, 8 h and 24 h after administration.
The crystal form I for the experiment was dissolved with 5% DMSO+10% PEG400+85% (20% captisol) physiological saline solution to prepare a solution; the solution of the test substance was administered to SD rats by gavage at a dose of 60.0 mg/kg; and the blood sampling time points were 15 min, 30 min, 1 h, 2 h, 4 h, 8 h, 24 h, 30 h and 48 h after administration.
The crystal form I for the experiment was dissolved with 2% DMSO+10% PEG400+88% (28% HP-β-CD) physiological saline to prepare a solution; the solution of the test substance was administered to SD rats by intravenous bolus at a dose of 5 mg/kg; and the blood sampling time points were 5 min, 15 min, 30 min, 1 h, 4 h, 8 h, 12 h and 24 h after administration.
Compound of formula (I): the ordinary SD rats were used and fixed; the tails of the rats were heated in a water bath 10 minutes before each time point; and about 100 μL of blood was collected via a tail vein, and then placed in an anticoagulation tube containing EDTA-K2. The blood sample was centrifuged at 8000 rpm at 4° C. for 6 min to obtain a plasma sample, which was prepared within 30 minutes after blood collection. The plasma was stored in a refrigerator at −80° C. before the test.
Crystal form I: the rats were subjected to jugular vein cannulation (JVC); each time, about 0.35 ml of blood was collected from the rats via a jugular vein cannula into a centrifuge tube containing 5 μl of 15% EDTA-K2; the mixture was gently mixed to obtain a homogeneous mixture, and then the centrifuge tube was placed in an ice bath immediately. Within 1 hour after collecting whole blood, the mixture was centrifuged at 4° C. and 2400×g for 5 minutes, and the supernatant was immediately collected to obtain a plasma sample. The plasma was stored in a refrigerator at −80° C. before the test.
the plasma sample to be tested was taken out from the −80° C. refrigerator, subjected to natural melting at room temperature, and then vortexed for 5 min; […] of the plasma sample was precisely pipetted into a 1.5 mL centrifuge tube; […] of the internal standard working solution (tolbutamide in methanol) at a concentration of 100 ng/mL was added, and the mixture was mixed homogeneously; the homogeneous mixture was vortexed for 5 min, and then centrifuged at 12000 rpm for 5 min; 50 μL of the supernatant was precisely pipetted into a 96-well plate pre-filled with 150 μL of water/well; and the plate was vortexed for 5 min for homogenization, and subjected to LC-MS/MS assay, with a sample loading volume of 5 μL. […]

Data set [2] can be described thus: Stability test of different crystal forms. The class given is physicochemical. As for the experimental part: Test substances: the crystal form I was prepared by example 2 of the present invention, the crystal form II was prepared by example 16 of the present invention, the crystal form III was prepared by example 20 of the present invention, the crystal form IV was prepared by example 24 of the present invention, the crystal form V was prepared by example 25 of the present invention, the crystal form VI was prepared by example 27 of the present invention, and the crystal form VII was prepared by example 31 of the present invention.
Method: the appropriate amount of different test substances were taken, and placed at 105° C. for 3 days, and at 60° C. and RH 92.5% under light for 5 days and 10 days, respectively; and the samples were collected on day 0, day 3, day 5 and day 10 to investigate the changes in the trait and content of the samples.
Table 5 and Table 6 show the results of the trait and content after placement at 105° C. for 3 days. Table 7 and Table 8 show the results of the trait and content after placement at 60° C. and RH 92.5% under light for 5 days. Table 9 and Table 10 show the results of the trait and content after placement at RH 92.5% under light for 10 days.

The mark [3] stands for this setting: male SD rats, gavage 60.0 mg/kg.
The mark [4] stands for this setting: male SD rats, intravenous bolus 5 mg/kg.

By Tmax is commonly meant the time from dosing to the highest level.

`CCc1cc2c(N3CCC(C)(OC)CC3)c(C#N)c(=O)[nH]c2cn1` [Crystal form I, 6-ethyl-4-(4-methoxy-4-methylpiperidin-1-yl)-2-oxo-1,2-dihydro-1,7-diazanaphthal ene-3-carbonitrile]: the Tmax in data set [1] (Sprague-Dawley, rat, plasma, po, male SD rats, gavage 60.0 mg/kg) worked out at 1.67 h. Besides, the AUC(0-t) in data set [1] (Sprague-Dawley, rat, plasma, po, male SD rats, gavage 60.0 mg/kg, read-out: AUClast PO) came to 40100 ng·h/mL; in data set [1] (Sprague-Dawley, rat, plasma, male SD rats, intravenous bolus 5 mg/kg, read-out: AUClast iv), 2450 ng·h/mL. Further, in data set [1] (conclusion from Table 2, rats), the pharmacokinetic characteristics entry is “excellent pharmacokinetic characteristics”. For the same molecule, in data set [1] (setting [3]), the “AUClast PO/Dose” value is recorded as 667.8 h*ng/mL per mg/kg. Also, the “tz1/2 PO” value in data set [1] (setting [3]) came out at 3.91 h. In data set [1] (setting [4]), the “AUClast iv/Dose” value was found to be 489.4 h*ng/mL per mg/kg. Further, in data set [1] (setting [4]), the Cl_obs iv was found to be 35.5 mL/min/kg. The Vz_obs iv in data set [1] (setting [4]) came to 0.898 L/kg. This molecule also registered a tz1/2 iv in data set [1] (setting [4]) of 0.453 h. Also, the Content was 99.7% in data set [2] (0 day); 99.8% in data set [2] (Placed at 60° C. for 5 days); 99.7% in data set [2] (Placed at RH 92.5% for 5 days); 100.3% in data set [2] (Placed at RH 92.5% for 10 days); 99.7% in data set [2] (Placed under light for 5 days); 99.3% in data set [2] (Placed under light for 10 days). Further, the Trait result in data set [2] (0 day), in data set [2] (Placed at RH 92.5% for 10 days) and in data set [2] (Placed under light for 10 days) was “Yellow powder” throughout.
